Measured values: article PMC8435237, “Overexpressing the N‐terminus of CATALASE2 enhances plant jasmonic acid biosynthesis and resistance to necrotrophic pathogen Botrytis cinerea B05.10” (Molecular Plant Pathology, 2021)

Key:
ACX3 = target: T1, ACX3 (Arabidopsis thaliana, UniProt P0CZ23); assay: MALDI-TOF/TOF MS of substrate and product; type: biochemical; details: no CAT2; 50 mM KPO4 pH 7.6, 50 µM FAD, 100 µg/ml BSA, 25 °C, 30 min; product Δ2-OPC4-CoA
T1 construct: pET28a (plasmid as in Yuan et al. 2017), purified from E. coli
T1 sequence (P0CZ23 35-675): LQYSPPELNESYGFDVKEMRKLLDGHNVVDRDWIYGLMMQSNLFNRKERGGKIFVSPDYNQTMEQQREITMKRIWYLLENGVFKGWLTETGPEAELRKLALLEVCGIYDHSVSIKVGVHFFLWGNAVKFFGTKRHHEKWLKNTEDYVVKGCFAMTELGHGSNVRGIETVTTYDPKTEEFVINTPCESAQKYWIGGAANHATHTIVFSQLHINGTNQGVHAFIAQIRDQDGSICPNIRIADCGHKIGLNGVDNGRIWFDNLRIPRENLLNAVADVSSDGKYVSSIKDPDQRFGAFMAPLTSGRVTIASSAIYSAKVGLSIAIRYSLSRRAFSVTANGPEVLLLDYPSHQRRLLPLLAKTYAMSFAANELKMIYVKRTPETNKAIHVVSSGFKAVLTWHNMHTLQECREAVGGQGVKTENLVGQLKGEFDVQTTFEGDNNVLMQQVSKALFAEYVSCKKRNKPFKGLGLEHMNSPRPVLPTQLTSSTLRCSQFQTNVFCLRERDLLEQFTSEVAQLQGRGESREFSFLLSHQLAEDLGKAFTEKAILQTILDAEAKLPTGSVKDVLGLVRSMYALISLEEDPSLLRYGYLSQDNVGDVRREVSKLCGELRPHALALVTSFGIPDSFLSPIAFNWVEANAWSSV

ACX2 = target: T2, ACX2 (Arabidopsis thaliana, UniProt O65201); assay: MALDI-TOF/TOF MS of substrate and product; type: biochemical; details: no CAT2; 50 mM KPO4 pH 7.6, 50 µM FAD, 100 µg/ml BSA, 25 °C, 30 min; product Δ2-OPC4-CoA
T2 construct: pET28a (plasmid as in Yuan et al. 2017), purified from E. coli
T2 sequence (O65201 50-692): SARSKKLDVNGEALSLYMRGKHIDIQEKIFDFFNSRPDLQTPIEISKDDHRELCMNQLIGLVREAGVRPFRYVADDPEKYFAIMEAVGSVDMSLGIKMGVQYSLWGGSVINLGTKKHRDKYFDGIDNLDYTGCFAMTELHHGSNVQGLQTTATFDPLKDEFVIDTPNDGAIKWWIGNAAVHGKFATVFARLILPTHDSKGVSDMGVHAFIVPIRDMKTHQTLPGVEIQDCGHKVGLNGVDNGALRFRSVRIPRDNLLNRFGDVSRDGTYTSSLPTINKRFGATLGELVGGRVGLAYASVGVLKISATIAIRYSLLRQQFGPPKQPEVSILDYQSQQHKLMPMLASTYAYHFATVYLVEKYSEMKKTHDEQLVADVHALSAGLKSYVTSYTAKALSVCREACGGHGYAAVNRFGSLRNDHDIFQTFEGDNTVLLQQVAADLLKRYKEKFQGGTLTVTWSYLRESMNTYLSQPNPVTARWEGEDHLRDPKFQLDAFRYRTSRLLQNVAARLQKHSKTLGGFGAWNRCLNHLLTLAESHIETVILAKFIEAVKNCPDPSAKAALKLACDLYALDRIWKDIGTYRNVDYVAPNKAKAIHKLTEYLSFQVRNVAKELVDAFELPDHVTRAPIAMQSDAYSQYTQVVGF

CC/C=C\C[C@@H]1C(=O)CC[C@@H]1CCCC(=O)SCCNC(=O)CCNC(=O)[C@H](O)C(C)(C)COP(=O)(O)OP(=O)(O)OC[C@H]1O[C@@H](n2cnc3c(N)ncnc32)[C@H](O)[C@@H]1OP(=O)(O)O [OPC4‐CoA]
MALDI-TOF/TOF MS of substrate and product (ACX3): The enzymatic activities of ACX2 and ACX3 were assessed with OPC4‐CoA as the substrate
MALDI-TOF/TOF MS of substrate and product (ACX2): The enzymatic activities of ACX2 and ACX3 were assessed with OPC4‐CoA as the substrate
